From PMC9268166, “Modeling of Anticancer Sulfonamide Derivatives Lipophilicity by Chemometric and Quantitative Structure-Retention Relationships Approaches” (Molecules, 2022)

Columns and labels:
[1] = Phenyl (Ph) chromatography, logkw from two gradients with DryLab; type: physicochemical; details: for logkw, Table S6: Phenyl chromatography, pH 7.4, short and long gradient; for logkwPh: pH 7.4, 40 °C, retention factor extrapolated to 0% organic modifier
Description: (§1) For this reason, the next step of our study concerns the characterization of investigated sulfonamide derivatives using a chromatographic approach. Generally, in RP-HPLC, the interactions between solutes and the stationary phase surface are mainly governed by lipophilicity. Consequently, RP-HPLC is the primary tool for assessing the lipophilicity of xenobiotics. […] Generally, the chemical character of target solutes determines interactions between the molecule and the stationary phase that may occur. Considering the large variety of RP-HPLC beds and differences in specific surface area, the energy of the sorbent’s intermolecular interactions between solutes and chemical structures, four different reversed-phase stationary phases and IAM column were investigated during this study. The lipophilicity index was presented as a logkw value, so the retention factor was extrapolated to the pure water after calculation using a protocol based on two gradient measurements and DryLab software.
(§2) Since the biomimetic chromatography experiments are carried out at physiological pH to compare obtained results, all chromatographic experiments have been carried out at pH 7.4. […] Consequently, the chromatography lipophilicity indices refer to the distribution coefficient (logD) values, which better reflect the lipophilicity of ionized substances under physiological conditions.
(§3) For C8, cyanopropyl, and phenyl chromatography, according to the assumption proposed by Snyder and co-workers, appropriate logkw values (i.e., the retention factor logk extrapolated to 0% organic modifier, as an alternative to logP) were obtained. […] Dwell volume for these HPLC systems was measured at 0.780 mL, whereas the obtained dead times for used HPLC columns were equal to 1.530 min, 1.252 min, and 2.335 min for C8, SB-CN, and UK-Phenyl, respectively. The mobile phase was ammonium acetate buffer (50 mM) at pH 7.4 and acetonitrile as an organic modifier in each system. C8 chromatography was performed on Unison UK-C8 column (150 × 2 mm; 3.0 µm. Imtakt; USA) with 0.3 mL/min flow rate. Analyses were carried out in linear gradient from 30 to 100% within 15 min in short gradient and 30 min in long gradient. The Agilent SB-CN column (150 × 4.6 mm; 3.5 µm; Zorbax; USA) was used for the cyanopropyl chromatography. The CN chromatography analyses were carried out in linear gradient from 20 to 100%, which was applied from 0 to 20 min in short gradient, and from 0 to 40 min in long gradient. The flow rate was 1.5 mL/min. The column Unison UK-Phenyl (150 × 2 mm; 3.0 µm; Imtakt; USA) was used to perform phenyl chromatography. The flow rate was set to 0.2 mL/min. The phenyl analyses were carried out in linear gradient from 40 to 100%, which was applied from 0 to 20 min in short gradient, and from 0 to 40 min in long gradient. Each HPLC analysis was run in triplicate; in Tables S2–S6, obtained retention times are listed, whereas representative chromatograms are shown in Figure 9.

[2] = test system: human colon cancer (HCT-116); design: method as in PMID 29772699, PMID 28122174, PMID 27338337, PMID 26506328; details: HCT-116 cell line; cited from earlier work
[3] = IAM chromatography (IAM-HPLC), IAM.PC.DD2 column; type: physicochemical; details: for logkIAM: logkIAM = 0.045 CHIIAM + 0.42; for CHIIAM: pH 7.4, 30 °C, acetonitrile gradient; for CHI (CHIIAM), Table S2: IAM chromatography, from mean of three retention times
Description: as §1, §2
(§4) All HPLC experiments were carried out using a Prominence-1 LC-2030C 3D HPLC system (Shimadzu, Japan) equipped with a DAD detector and controlled by the LabSolution system (version 5.90 Shimadzu, Japan). The stock solutions of solutes were diluted to obtain 100 μg/mL concentrations, and the injected volume was 10 μL. During this study, six different columns in terms of chemical modification of stationary phases were used. Retention times (tR) of investigated sulfonamides were collected, and their detection in all systems was performed at the wavelength characteristic for each compound, summarized in Table S1. For all chromatography systems, analysis was carried out at 40 °C, except for IAM chromatography, in which oven temperature was set to 30 °C. The CHIIAM and CHI18 indices of the target sulfonamides derivatives were obtained using the protocol proposed by Valko and co-workers. C18 chromatography was performed on a Waters-C18 column (150 mm × 3.9 mm; 5.0 µm; Symmetry; USA), with a 1.5 mL/min flow rate. The mobile phase was ammonium acetate buffer (50 mM) at pH 7.4 and acetonitrile as an organic modifier. The linear gradient from 2 to 98% ACN was applied from 0 to 30 min. IAM chromatography was executed on an IAM.PC.DD2 column ([…] × 4.6 mm; 10.0 µm; Regis Technologies, Morton Grove, IL, USA) additionally equipped with an IAM guard column with the same flow rate of 1.5 mL/min. The mobile phase was sodium phosphate buffer (10 mM) at pH 7.4 and acetonitrile as the organic phase. The linear gradient from 0 to 85% was applied within 5.25 min.

[4] = C18 chromatography (RP-HPLC), chromatographic hydrophobicity index; type: physicochemical; details: for chromatographic logD: Waters Symmetry C18 column, CHI log D = 0.0525 CHIC18 − 1.467, pH 7.4; for CHIC18: pH 7.4, 40 °C, acetonitrile gradient
Description: as §1, §2, §4

[5] = C8 chromatography (RP-HPLC), logkw from two gradients with DryLab; type: physicochemical; details: for logkw, Table S4: C8 chromatography, pH 7.4, short and long gradient; for logkwC8: pH 7.4, 40 °C, retention factor extrapolated to 0% organic modifier
Description: as §1, §2, §3

[6] = Cyanopropyl (CN) chromatography, logkw from two gradients with DryLab; type: physicochemical; details: for logkw, Table S5: Cyanopropyl chromatography, pH 7.4, short and long gradient; for logkwCN: pH 7.4, 40 °C, retention factor extrapolated to 0% organic modifier
Description: as §1, §2, §3

SMILES	logkw, Table S6 [1]	logkwPh [1]	pIC50 [2]	logkIAM ([3]; pH 7.4)	CHIIAM [3]	chromatographic logD [4]	CHIC18 [4]	logkw, Table S4 [5]	logkwC8 [5]	logkw, Table S5 [6]	logkwCN [6]	CHI (CHIIAM), Table S2 ([3]; pH 7.4)	lipophilicity rank by the chromatographic experiments ([3]; based on the experimental data of all chromatographic systems, pH 7.4)
Cc1cc(S(=O)(=O)Nc2nnc(Cc3ccccc3[N+](=O)[O-])c(=O)[nH]2)c(SCc2cc3c(cc2Cl)OCO3)cc1Cl [Compound 12]	3.897	3.90	4.06	2.00	35.20	2.7	79.30	4.070	4.07	2.162	2.16		
Cc1cc(S(=O)(=O)Nc2nnc(C)c(=O)[nH]2)c(SCc2cccc3ccccc23)cc1Cl [Compound 9]	2.880	2.88	4.07	1.83		2.33	72.30	3.692	3.69	1.850	1.85	31.4	
Cc1cc(S(=O)(=O)Nc2nncc(-c3cccc(F)c3)n2)c(SCc2ccccc2)cc1Cl [Compound 13]	3.532	3.53	4.12	2.09		2.62	77.90	4.030	4.03	2.037	2.04	37.1	
COc1cc(-c2cnnc(NS(=O)(=O)c3cc(C(=O)Nc4ccc(C)cc4)c(Cl)cc3SCc3ccccc3)n2)cc(OC)c1OC [Compound 19]	3.967	3.97	4.12	1.93	33.60	2.72	79.70	4.068	4.07	2.216	2.22		
O=S(=O)(Nc1cccc2cccnc12)c1ccc(-n2cccc2)cc1 [Compound 2]	6.221	6.22	6.00	2.45		3.65	97.50	4.682	4.68	4.040	4.04	45.0	
COc1ccc(-c2cnnc(NS(=O)(=O)c3cc(C(=O)Nc4ccccc4)c(Cl)cc3SCc3ccccc3)n2)cc1 [Compound 14]	4.310	4.31	4.11	2.03	35.80	2.68	78.90	4.130	4.13	2.020	2.02		
Cc1ccc2cccnc2c1NS(=O)(=O)c1ccc(-n2cccc2)cc1 [Compound 3]	5.556	5.56	4.72	2.31		3.51	94.80	4.593	4.59	2.966	2.97	42.0	
Cc1ccnc(NS(=O)(=O)c2ccc(-n3cccc3)cc2)n1 [Compound 1]	2.620	2.62	4.34	1.28		1.51	56.70	2.980	2.98	1.580	1.58	19.2	least lipophilic
Cc1ccc2cccc(NS(=O)(=O)c3ccc(-n4cccc4)cc3)c2n1 [Compound 4]	7.389	7.39	5.05	2.49		4.04	104.80	4.898	4.90	3.628	3.63	45.9	
COc1ccc(-c2cnnc(NS(=O)(=O)c3cc(C(=O)Nc4ccc(C)cc4)c(Cl)cc3SCc3ccccc3)n2)cc1 [Compound 18]	4.228	4.23	4.12	2.11	37.50	2.88	82.80	4.280	4.28	2.358	2.36		
COc1ccc(-c2cnnc(NS(=O)(=O)c3cc(C)c(Cl)cc3SCc3ccc(C(F)(F)F)cc3)n2)cc1 [Compound 25]	3.886	3.89	4.17	2.09		2.96	84.40	4.260	4.26	2.330	2.33	37.2	
